Consider 2 compounds from publication PMC7234998, “Quantification of Colistin in Plasma by Liquid Chromatography-Tandem Mass Spectrometry: Application to a Pharmacokinetic Study” (Scientific Reports, 2020).

For data set [1] the following is noted: cited from earlier work. The source says: Following the validation of the present analytical method, the method was applied to estimate the pharmacokinetic profile of colistin in experimental rats. Choosing the animal species to perform the pharmacokinetic study was based on the similarity of colistin pharmacokinetic profile between animal species and humans. […] The species that has the closest pharmacokinetic profile to humans are rats[43]–[45]. […] This is because of a distribution phase that occurs before the decline in the colistin concentration. This finding is in agreement with previous reports[43],[44],[49]. In the present study, we observed that colistin concentration declined rapidly over 180–240 min which is consistent with earlier findings[45],[49]. […] In the present study, the Vd of colistin was 2.45 ± 1.30 L/kg in ...

The next data set is described as follows: in vivo. To be noted: male, Sprague Dawley, rat, iv, 15 mg/kg.
A short description of data set [2]: Benchtop stability of colistin in rat plasma samples at room temperature. To be noted: rat plasma, stored for 6 hours at room temperature (25 °C), LC-MS/MS.
Description: (§1) Colistin sulfate was prepared by dissolving 5.5 mg of the powder in 5 ml water to make a stock solution of 1 mg/ml of colistin. PMB sulfate solution of 1 mg/ml was also prepared by dissolving 5.8 mg of PMB sulfate powder in 5 ml water. Both solutions were stored at −70 °C. Calibration standards and quality controls were prepared by spiking different amounts of colistin sulfate stock solution in plasma. Aliquots of colistin sulfate were further diluted to provide standard concentrations of 0.5, 1, 2, 5, 10, 15, and 20 μg/mL (equivalent to: 78, 156, 312, 780, 1560, 2340 and 3120 ng/ml of colistin A and 353, 706, 1412, 3350, 7060, 10590 and 14120 ng/ml of colistin B) whereas, the concentrations of 1.5, 3.5, 7.5 and 17.5 μg/mL (which contained 234, 546, 1170 and 2730 ng/ml of colistin A and 1059, 2471, 5295 and 12355 ng/ml of colistin B) were considered as quality controls. The calibration standards and quality controls were aliquoted (150 μL) into 0.5 ml Eppendorf tubes and stored at −70 °C pending analysis.
(§2) To 100 μl rat plasma sample, 5 μl of 500 μg/ml IS was added and followed by addition of 400 μl of 50:50 (v/v) methanol-TCA (10%). The samples were vortex-mixed for 1 min, rota-mixed for 10 min at 40 rpm and then centrifuged at 12,000 rpm for 10 min. Following centrifugation, 400 µl of the supernatant was collected and re-extracted with solid phase extraction (SPE) using SPE (Oasis HLB 1 cc, 30 mg) cartridges. First, the cartridges were conditioned with 500 μl of methanol then 500 μl of water. After that, 400 μl of the supernatant was transferred and then washed with 500 μl of water. The tubes were changed and then the samples were eluted with 150 μl of methanol: water: formic acid (80:19:1%, v/v/v) solution. The elution step was repeated twice, and then 250 μl of the solution was transferred to the low volume inserts and 20 μl of this solution was injected into the LC-MS system.
(§3) Various types of stability tests including freeze-thaw stability and long-term stability were assessed. The freeze-thaw stability test was performed by removing the four QC samples out of the storage temperature (−70 °C) and keeping them at room temperature (25 °C) until thawing and then aliquots of the samples were analyzed. After that, the samples were again returned back for freezing in the same storage conditions for 12 to 24 h. The freeze-thaw cycles were repeated five times and 4 replicates of the analytes were assayed. In addition, a long-term stability test was performed to ensure that the stability of the samples for a time that exceeds the interval between the first sample collection and the last sample analysis. Four aliquots of low, medium and high concentrations (QC) were kept for 20 days in the same temperature used to store samples regularly at the lab (−70 °C) then analyzed and compared to the nominal concentration of freshly prepared QC samples. Moreover, the stability in the autosampler (4 °C) was assessed by keeping the processed samples under this condition and assayed periodically at different times for up to 24 hours. In addition, benchtop stability test was performed by keeping the samples at room temperature (25 °C) for six hours and analyzing them during this time. The mean value results of stability tests were calculated and compared to the nominal concentrations.
The nature of data set [3]: Freeze-thaw stability of colistin in rat plasma QC samples. To be noted: five freeze-thaw cycles, −70 °C to room temperature.
Description: as §1, §2, §3
For data set [4] the following is noted: cited from earlier work. How it is done:
However, colistin sulphate has been reported to be well absorbed after an oral administration in infants. […] The standards and quality control samples concentrations were selected based on the therapeutic range of colistin. The expected colistin serum levels according to the antimicrobial reference laboratory assay service are 5–15 mg/L and 2–4 mg/L for the peak and tough concentrations, respectively. […] Choosing the animal species to perform the pharmacokinetic study was based on the similarity of colistin pharmacokinetic profile between animal species and humans. […] The species that has the closest pharmacokinetic profile to humans are rats[43]–[45].
This is another data set of the same source.

The nature of data set [5]: Autosampler stability of processed colistin rat plasma samples at 4 °C.
Description: as §1, §2, §3
Data set [6] in a line: Long-term stability of colistin in rat plasma QC samples at −70 °C. The following applies: rat plasma, 20 days, LC-MS/MS.
Description: as §1, §2, §3
A short description of data set [7]: Pharmacokinetic study of colistin in rats after IV colistin sulfate, plasma LC-MS/MS, non-compartmental analysis. To be noted: male, rat, 15 mg/kg, SD.
Description: as §2
(§4) Male Sprague Dawley® (MSD) rats (21 weeks ± 3 days of age) with a body weight of 450–550 g [supplied by the Animal Resource Center (ARC), Health Sciences Center (HSC), Kuwait University] were used to estimate the pharmacokinetic profile of colistin. The animals (n = 8) were housed in 12 h/12 h light/dark cycle. […] All the animals were subjected to left jugular vein cannulation, IV drug administration, and subsequent blood sampling. All surgical procedures were carried out under strict aseptic conditions. In addition, all surgical instruments and materials were autoclaved, all solutions were sterile and the surgical procedure was performed with the aid of surgical microscope (Leica wild M690). Animal body temperatures were maintained around 37.6 °C (rectal) by placing the animals on an electronic heating pad throughout the surgical procedure as well as the post-surgical recovery period. About 350 µl of rat blood sample was collected from each animal. From this sample, 50 µl of blood sample was transferred to a capillary tube, sealed with the sealant clay at one end and centrifuged to calculate the Packed Cell Volume (PCV); i.e., Hematocrit. The remaining rat blood sample (300 µl) was centrifuged at 9000 X g for 10 min and aliquots of 100 µl of plasma sample was collected and stored at −70 °C pending analysis.
(§5) Colistin was quantified in the biological samples by the present LC-MS/MS method and then the pharmacokinetic parameters (t1/2, CL, Vd, AUC) were estimated by non-compartmental method employing Kinetica® software, version 5.1 (Thermo Fisher Scientific, Waltham, USA).

Molecules are shown by their SMILES. “Also recorded” adds a separate entry of the source. Read-outs that look alike come from different tables or passages of the source. Positions of bridges follow the written chain, without caps; N, C: chain ends. Non-standard residues stand in square brackets, D forms with d. Residues, ends and D or L forms follow the SMILES beside them. *: point of attachment. Heptanoyl(6-Me) = CC(C)CCCCC(=O)*; X1 = CC[C@H](C)CCCCC(=O)*; Dab = NCC[C@H](N)C(=O)O Where only a bound is given, the exact number is not on record here.

Description for in vivo: as §2, §4, §5

In the case of `CC(C)CCCCC(=O)N[C@@H](CCN)C(=O)N[C@H](C(=O)N[C@@H](CCN)C(=O)N[C@H]1CCNC(=O)[C@H]([C@@H](C)O)NC(=O)[C@H](CCN)NC(=O)[C@H](CCN)NC(=O)[C@H](CC(C)C)NC(=O)[C@@H](CC(C)C)NC(=O)[C@H](CCN)NC1=O)[C@@H](C)O` [Colistin B, colistin B] ({Heptanoyl(6-Me)}-[Dab]T[Dab][Dab][Dab][dL]L[Dab][Dab]T; lactam 4-C), in data set [1] (rat, in vivo), the “CL of the individual components” value was 3.05 ± 0.62 mL/min/kg and the “t1/2 of the major components” value is 91.3 ± 20.5 min. In the data set “in vivo”, this compound had a level at 0.5 h of 2640 ng/mL.
On to `CC[C@H](C)CCCCC(=O)N[C@@H](CCN)C(=O)N[C@H](C(=O)N[C@@H](CCN)C(=O)N[C@H]1CCNC(=O)[C@H]([C@@H](C)O)NC(=O)[C@H](CCN)NC(=O)[C@H](CCN)NC(=O)[C@H](CC(C)C)NC(=O)[C@@H](CC(C)C)NC(=O)[C@H](CCN)NC1=O)[C@@H](C)O` [colistin] (X1-[Dab]T[Dab][Dab][Dab][dL]L[Dab][Dab]T; lactam 4-C), for which the “benchtop (room temperature) stability (in words)” value in data set [2] is recorded as “in-stability”; in data set [2] (listed as Colistin), “not stable”. In addition, the “deviation of resulting concentrations from nominal after freeze-thaw” value in data set [3] (plasma samples) is at most 15%. In addition, the “freeze-thaw stability (in words)” value in data set [3] (rat plasma, LC-MS/MS) is on record as “stable; also recorded: acceptable”. Moreover, the minimum concentration in data set [4] (Markou and colleagues, steady state) is on record as 1.03 ± 0.44 mg/L. The “maximum steady state concentration” value in data set [4] (Markou and colleagues) was 2.93 ± 1.24 mg/L. In data set [4] (colistin, eliminated extra-renally), the elimination half-life is on record as 3 h. Also, the Vd (in general, the apparent volume that relates the amount in the body to the concentration in plasma or blood) in data set [4] (humans) was 12.4 L; in data set [1] (rats, earlier report) it was 0.50 ± 0.06 L/kg; in data set [1] (rats), 0.496 ± 0.06 L/kg; in data set [7] (Sprague Dawley), 2.45 ± 1.29 L/kg. Moreover, the t1/2 in data set [4] (humans) is recorded as 180 min; in data set [1] (rats, another study) it was 55.7 ± 19.3 min; in data set [1] (rats, dose ranging study, dose 15 mg/kg), 32.4 ± 5.0 min; in data set [1] (rats), 74.6 ± 13.2 min. Also, the “deviation of result at each level from nominal concentration in the autosampler” value in data set [5] (autosampler environment, 4 °C) is at most 15%. Besides, in data set [5] (processed samples, autosampler 4 °C, up to 24 hours, LC-MS/MS), the “autosampler stability (in words)” value is recorded as “stable; also recorded: acceptable”. Also, in data set [6], the “long-term stability (in words)” value is recorded as “stable; also recorded: acceptable”. The “AUC0-∞” value in data set [1] (rats, mean ± S.D., other investigators, SD) is 2.6 ± 0.47 mg·h/L. Besides, the “total body clearance (CL)” value in data set [1] (rats, reported by other investigators) was 11.7 ± 1.8 mL/min/kg. Also, the CLR in data set [1] (rats) was 5.2 ± 0.4 mL/min/kg. Moreover, the clearance (usually the rate of elimination divided by the concentration) in data set [7] (Sprague Dawley (MSD)) came to 25.5 ± 10.6 mL/min/kg. Moreover, in data set [7] (Sprague Dawley), the AUC(0-inf) – broadly, the area under the concentration-time curve extrapolated to infinity – was 10500 ng·h/mL. The half-life (in general, the time needed for the level to fall by half in the phase considered) in data set [7] (Sprague Dawley) was 64.5 ± 36.3 min.
